Data reported in ChEMBL document CHEMBL5223113, “Several non-salt and solid thienopyridine derivatives as oral P2Y12 receptor inhibitors with good stability” (Bioorg Med Chem Lett, 2022).

Columns and labels:
[1] = Stability in human plasma assessed as compound remaining measured at 5 mins relative to control; format: ADME, cell-free; conditions: read-out: Stability
[2] = Stability in human plasma assessed as compound remaining measured at 45 mins relative to control; format: ADME, cell-free; conditions: read-out: Stability
Rattus norvegicus [3] = assay: Anti-platelet activity against ADP-induced platelet aggregation in rat assessed as inhibition of platelet aggregation at 3 mg/kg relative to control; format: functional
[4] = Toxicity in rat assessed as bleeding time by measuring ratio of ED200 to ED50 ratio by tail cutting assay; conditions: in vivo
[5] = Stability in human plasma assessed as compound remaining measured at 10 mins relative to control; format: ADME, cell-free; conditions: read-out: Stability
[6] = Toxicity in beagle dog assessed as emesis at 100 mg/kg/day oral gavage observed for 14 days; format: organism-based, Canis lupus familiaris; conditions: in vivo, 336 h, time 14 day
[7] = Toxicity in beagle dog assessed as mydriasis at 100 mg/kg/day oral gavage observed for 14 days; format: organism-based, Canis lupus familiaris; conditions: in vivo, 336 h, time 14 day
[8] = Stability in human plasma assessed as compound remaining measured at 150 mins relative to control; format: ADME, cell-free; conditions: read-out: Stability
[9] = Stability in human plasma assessed as compound remaining measured at 180 mins relative to control; format: ADME, cell-free; conditions: read-out: Stability
[10] = Stability in human plasma assessed as compound remaining measured at 30 mins relative to control; format: ADME, cell-free; conditions: read-out: Stability
Rattus norvegicus [11] = species: Rattus norvegicus; assay: Inhibition of thrombosis in anteriovenous bypassed rat; format: functional
[12] = Toxicity in beagle dog assessed as ALP level at 100 to 300 mg/kg/day oral gavage observed for 14 days; format: organism-based, Canis lupus familiaris; conditions: in vivo, 336 h, dose 100-300 mg/kg/day, time 14 day
[13] = Stability in human plasma assessed as compound remaining measured at 300 mins relative to control; format: ADME, cell-free; conditions: read-out: Stability
[14] = Stability in human plasma assessed as compound remaining measured at 360 mins relative to control; format: ADME, cell-free; conditions: read-out: Stability
[15] = Toxicity in beagle dog assessed as abnormality in blood and biochemical index at 2000 mg/kg oral gavage observed for 14 days; format: organism-based, Canis lupus familiaris; conditions: in vivo, 336 h, time 14 day
[16] = Toxicity in beagle dog assessed as vomiting at 100 to 300 mg/kg/day oral gavage observed for 14 days; format: organism-based, Canis lupus familiaris; conditions: in vivo, 336 h, dose 100-300 mg/kg/day, time 14 day
[17] = Stability in human plasma assessed as compound remaining measured at 90 mins relative to control; format: ADME, cell-free; conditions: read-out: Stability
[18] = Stability in human plasma assessed as compound remaining measured at 240 mins relative to control; format: ADME, cell-free; conditions: read-out: Stability
[19] = Toxicity in beagle dog assessed as dilated pupil at 100 to 300 mg/kg/day oral gavage observed for 14 days; format: organism-based, Canis lupus familiaris; conditions: in vivo, 336 h, dose 100-300 mg/kg/day, time 14 day
[20] = Toxicity in beagle dog assessed as death at 2000 mg/kg oral gavage observed for 14 days; format: organism-based, Canis lupus familiaris; conditions: in vivo, 336 h, time 14 day
Rattus norvegicus [21] = assay: Inhibition of thrombosis in anteriovenous bypassed rat at 1 mg/kg relative to control; format: functional
[22] = Toxicity in rat assessed as bleeding time by tail cutting assay; conditions: in vivo
Rattus norvegicus [23] = assay: Anti-platelet activity against ADP-induced platelet aggregation in rat assessed as inhibition of platelet aggregation at 0.75 mg/kg relative to control; format: functional
[24] = Toxicity in beagle dog assessed as electrocardiogram at 100 to 300 mg/kg/day oral gavage observed for 14 days; format: organism-based, Canis lupus familiaris; conditions: in vivo, 336 h, dose 100-300 mg/kg/day, time 14 day
Rattus norvegicus [25] = assay: Inhibition of thrombosis in anteriovenous bypassed rat at 3 mg/kg relative to control; format: functional
[26] = Stability in human plasma assessed as compound remaining measured at 120 mins relative to control; format: ADME, cell-free; conditions: read-out: Stability
[27] = Toxicity in beagle dog assessed as abnormality in blood and biochemical index at 100 to 300 mg/kg/day oral gavage observed for 14 days; format: organism-based, Canis lupus familiaris; conditions: in vivo, 336 h, dose 100-300 mg/kg/day, time 14 day
Rattus norvegicus [28] = assay: Inhibition of thrombosis in anteriovenous bypassed rat at 30 mg/kg relative to control; format: functional
Rattus norvegicus [29] = assay: Inhibition of thrombosis in anteriovenous bypassed rat at 10 mg/kg relative to control; format: functional
Rattus norvegicus [30] = assay: Anti-platelet activity against ADP-induced platelet aggregation in rat assessed as inhibition of platelet aggregation at 1.5 mg/kg relative to control; format: functional
[31] = Stability in human plasma assessed as compound remaining measured at 60 mins relative to control; format: ADME, cell-free; conditions: read-out: Stability
[32] = Toxicity in beagle dog assessed as electrocardiogram at 2000 mg/kg oral gavage observed for 14 days; format: organism-based, Canis lupus familiaris; conditions: in vivo, 336 h, time 14 day
[33] = Toxicity in beagle dog assessed as increase in liver weight at 100 mg/kg/day oral gavage observed for 14 days; format: organism-based, Canis lupus familiaris; conditions: in vivo, 336 h, time 14 day
[34] = Stability in human plasma assessed as compound remaining measured at 20 mins relative to control; format: ADME, cell-free; conditions: read-out: Stability
[35] = Toxicity in beagle dog assessed as decrease in platelet aggregation at 100 mg/kg/day oral gavage observed for 14 days; format: organism-based, Canis lupus familiaris; conditions: in vivo, 336 h, time 14 day
[36] = Toxicity in beagle dog assessed as swelling of hepatocyte at 100 mg/kg/day oral gavage observed for 14 days; format: organism-based, Canis lupus familiaris; conditions: hepatocytes, 336 h, time 14 day
[37] = Toxicity in beagle dog assessed as ALT level at 100 to 300 mg/kg/day oral gavage observed for 14 days; format: organism-based, Canis lupus familiaris; conditions: in vivo, 336 h, dose 100-300 mg/kg/day, time 14 day
[38] = Toxicity in beagle dog assessed as increase in ALP at 100 mg/kg/day oral gavage observed for 14 days; format: organism-based, Canis lupus familiaris; conditions: in vivo, 336 h, time 14 day
Rattus norvegicus [39] = assay: Anti-platelet activity against ADP-induced platelet aggregation in rat assessed as inhibition of platelet aggregation at 2 mg/kg relative to control; format: functional
Rattus norvegicus [40] = assay: Anti-platelet activity against ADP-induced platelet aggregation in rat assessed as inhibition of platelet aggregation at 4 mg/kg relative to control; format: functional
Rattus norvegicus [41] = assay: Anti-platelet activity against ADP-induced platelet aggregation in rat assessed as inhibition of platelet aggregation at 1 mg/kg relative to control; format: functional
Rattus norvegicus [42] = species: Rattus norvegicus; assay: animal or person; conditions: Platelet, read-out: INH
Description: Anti-platelet activity against ADP-induced platelet aggregation in rat assessed as inhibition of platelet aggregation at 10 mg/kg relative to control

Rattus norvegicus [43] = species: Rattus norvegicus; assay: animal or person; conditions: Platelet, read-out: INH; remark: listed apart in the source
Description: Anti-platelet activity against ADP-induced platelet aggregation in rat assessed as inhibition of platelet aggregation at 2.5 mg/kg relative to control

Rattus norvegicus [44] = species: Rattus norvegicus; assay: animal or person; conditions: Platelet, read-out: INH; remark: listed apart in the source
Description: Anti-platelet activity against ADP-induced platelet aggregation in rat assessed as inhibition of platelet aggregation at 5 mg/kg relative to control

Rattus norvegicus [45] = assay: Anti-platelet activity against ADP-induced platelet aggregation in rat assessed as inhibition of platelet aggregation at 0.5 mg/kg relative to control; format: functional
Rattus norvegicus [46] = assay: Inhibition of thrombosis in anteriovenous bypassed rat at 0.1 mg/kg relative to control; conditions: read-out: INH
[47] = Toxicity in beagle dog assessed as atrophy of hepatocyte at 1000 mg/kg oral gavage single dose; format: organism-based, Canis lupus familiaris; conditions: hepatocytes
[48] = Toxicity in beagle dog assessed as vomiting at 1000 mg/kg oral gavage single dose; format: organism-based, Canis lupus familiaris; conditions: in vivo
Rattus norvegicus [49] = assay: Inhibition of thrombosis in anteriovenous bypassed rat at 0.3 mg/kg relative to control; format: functional
Rattus norvegicus [50] = assay: Anti-platelet activity against ADP-induced platelet aggregation in rat assessed as inhibition of platelet aggregation at 0.25 mg/kg relative to control; format: functional

## C/C=C/C=C/C(=O)Oc1cc2c(s1)CCN([C@H](C(=O)OC)c1ccccc1Cl)C2
[1]
  remaining at 5 min: 93.5%
[2]
  remaining at 0.75 h: 83.9%
Rattus norvegicus [3]
  inhibition in vivo at 3 mg/kg: 85.8%
[4]
  selectivity ratio: 0.52
[5]
  remaining at 10 min: 92.8%
[6]
  Activity: Toxic
[7]
  Activity: Toxic
[8]
  remaining at 2.5 h: 46.7%
[9]
  remaining at 3 h: 43%
[10]
  remaining at 0.5 h: 86.6%
Rattus norvegicus [11]
  ED50: 11.8 mg/kg
[12]
  Activity: Non-Toxic
[13]
  remaining at 5 h: 20.9%
[14]
  remaining at 6 h: 14.8%
[15]
  Activity: Non-Toxic
[16]
  Activity: Non-Toxic
[17]
  remaining at 1.5 h: 63.8%
[18]
  remaining at 4 h: 30%
[19]
  Activity: Non-Toxic
[20]
  Activity: Non-Toxic
Rattus norvegicus [21]
  inhibition in vivo at 1 mg/kg: 36.5%
[22]
  ED200: 0.822 mg/kg
Rattus norvegicus [23]
  inhibition in vivo at 0.75 mg/kg: 7%
[24]
  Activity: Non-Toxic
Rattus norvegicus [25]
  inhibition in vivo at 3 mg/kg: 40.3%
[26]
  remaining at 2 h: 62.9%
[27]
  Activity: Non-Toxic
Rattus norvegicus [28]
  inhibition in vivo at 30 mg/kg: 68.6%
Rattus norvegicus [29]
  inhibition in vivo at 10 mg/kg: 52.1%
Rattus norvegicus [30]
  inhibition in vivo at 1.5 mg/kg: 50.8%
[31]
  remaining at 1 h: 76.8%
[32]
  Activity: Non-Toxic
[33]
  Activity: Toxic
[34]
  remaining at 20 min: 97.1%
[35]
  Activity: Toxic
[36]
  Activity: Toxic
[37]
  Activity: Non-Toxic
[38]
  Activity: Toxic

## C=C/C=C/C(=O)Oc1cc2c(s1)CCN([C@H](C(=O)OC)c1ccccc1Cl)C2
Rattus norvegicus [39]
  inhibition in vivo at 2 mg/kg: 97.6%
Rattus norvegicus [40]
  inhibition in vivo at 4 mg/kg: 100%
Rattus norvegicus [41]
  inhibition in vivo at 1 mg/kg: 44%

## COC(=O)[C@H](c1ccccc1Cl)N1CCc2sccc2C1 [CLOPIDOGREL]
[1]
  remaining at 5 min: 106%
[2]
  remaining at 0.75 h: 101%
[5]
  remaining at 10 min: 102%
Rattus norvegicus [42]
  inhibition in vivo at 10 mg/kg: 90.5%
Rattus norvegicus [43]
  inhibition in vivo at 2.5 mg/kg: 26.5%
[10]
  remaining at 0.5 h: 104%
[17]
  remaining at 1.5 h: 94%
Rattus norvegicus [44]
  inhibition in vivo at 5 mg/kg: 59.7%
[26]
  remaining at 2 h: 96%
Rattus norvegicus [28]
  inhibition in vivo at 30 mg/kg: 72.6%
Rattus norvegicus [29]
  inhibition in vivo at 10 mg/kg: 41.5%
[31]
  remaining at 1 h: 100%
[34]
  remaining at 20 min: 100%

## CC(=O)Oc1cc2c(s1)CCN(C(C(=O)C1CC1)c1ccccc1F)C2 (stereo unspecified) [PRASUGREL]
Rattus norvegicus [45]
  inhibition in vivo at 0.5 mg/kg: 37.8%
Rattus norvegicus [46]
  inhibition in vivo at 0.1 mg/kg: 6%
[4]
  selectivity ratio: 0.838
[47]
  Activity: Toxic
Rattus norvegicus [11]
  ED50: 11.8 mg/kg
Rattus norvegicus [21]
  inhibition in vivo at 1 mg/kg: 35.7%
[48]
  Activity: Toxic
[22]
  ED200: 0.513 mg/kg
Rattus norvegicus [25]
  inhibition in vivo at 3 mg/kg: 70.2%
Rattus norvegicus [49]
  inhibition in vivo at 0.3 mg/kg: 9%
Rattus norvegicus [41]
  inhibition in vivo at 1 mg/kg: 13.3%
Rattus norvegicus [50]
  inhibition in vivo at 0.25 mg/kg: 13.3%
